Measurements reported in ChEMBL document CHEMBL5370544, “Design, synthesis, and biological evaluation of 1-styrenyl isoquinoline derivatives for anti-hepatocellular carcinoma activity and effect on mitochondria” (Eur J Med Chem, 2023).

Key:
[1] = tested on: SK-HEP1; assay: Antiproliferative activity against human SK-HEP1 cells assessed as inhibition of cell growth measured after 72 hrs by MTT assay; type: functional, cell-based; conditions: SK-HEP1, 72 h
[2] = tested on: HCCLM9; assay: Antiproliferative activity against human HCCLM9 cells assessed as inhibition of cell growth measured after 72 hrs by MTT assay; type: functional, cell-based; conditions: HCCLM9, 72 h
[3] = tested on: HepG2; assay: Antiproliferative activity against human HepG2 cells assessed as inhibition of cell growth measured after 72 hrs by MTT assay; type: functional, cell-based; conditions: HepG2, 72 h
[4] = tested on: Huh-7; assay: Antiproliferative activity against human Huh-7 cells assessed as inhibition of cell growth measured after 72 hrs by MTT assay; type: functional, cell-based; conditions: Huh-7, 72 h
[5] = tested on: Huh-7; assay: Antitumor activity against human Huh-7 cells xenografted in BALB/c mouse assessed as tumor growth inhibition at 15 mg/kg, ip qd measured after 14 days; type: functional; conditions: Huh-7, 336 h, time 14 day, read-out: TGI

Row | SMILES | IC50 [1] [µM] | IC50 [2] [µM] | IC50 [3] [µM] | IC50 [4] [µM] | inhibition in vivo at 15 mg/kg [5] [%]
1 | COc1ccc(/C=C/c2nccc3ccccc23)cc1 | > 40 | > 40 | 18.1 | 15.8 | 
2 | N#Cc1ccccc1/C=C/c1nccc2ccccc12 | 11.7 | 10.8 | 17.4 | 4.52 | 
3 | Oc1cccc(/C=C/c2nccc3ccccc23)c1 | > 40 | > 40 | 20.4 | 24.7 | 
4 | CNC(=O)c1cc(Oc2ccc(NC(=O)Nc3ccc(Cl)c(C(F)(F)F)c3)cc2)ccn1 [SORAFENIB] | 8.63 | 9.21 | 9.03 | 9.48 | 77
5 | N#Cc1cccc(/C=C/c2nccc3ccccc23)c1 | > 40 | > 40 | > 40 | 12.2 | 
6 | O=c1[nH]cc(F)c(=O)[nH]1 [FLUOROURACIL] | > 40 | 27.2 | 29.4 | 8.98 | 
7 | Oc1ccc(/C=C/c2nccc3ccccc23)cc1 | > 40 | 29.9 | > 40 | 11.9 | 
8 | CC(=O)Oc1ccc(/C=C/c2nccc3ccccc23)cc1 | 23.4 | 35.1 | 20.6 | 15.4 | 
9 | C(=C\c1nccc2ccccc12)/c1ccc(-c2ccccc2)cc1 | > 40 | > 40 | > 40 | > 40 | 
10 | CC(=O)Oc1cccc(/C=C/c2nccc3ccccc23)c1 | 14.3 | 28.6 | 14.5 | 11.6 | 
11 | Nc1ccc(/C=C/c2nccc3ccccc23)cc1 | > 40 | 16.1 | 23.4 | 17.3 | 
12 | Nc1ccccc1/C=C/c1nccc2ccccc12 | 26.1 | > 40 | 25.3 | > 40 | 
13 | C#Cc1ccc(/C=C/c2nccc3ccccc23)cc1 | > 40 | > 40 | > 40 | 12.9 | 
14 | Nc1cccc(/C=C/c2nccc3ccccc23)c1 | > 40 | 30.9 | 8.66 | 14.1 | 
15 | COc1cccc(/C=C/c2nccc3ccccc23)c1 | 33 | 20.4 | 10.8 | 15.1 | 
16 | N#Cc1ccc(/C=C/c2nccc3ccccc23)cc1 | > 40 | 30.7 | > 40 | 5.61 | 
17 | C#Cc1ccccc1/C=C/c1nccc2ccccc12 | 39.2 | > 40 | 31 | 24.8 | 
18 | Oc1ccccc1/C=C/c1nccc2ccccc12 | 17.1 | 13.6 | 8.92 | 6.07 | 
19 | Oc1ccc(/C=C/c2cc(O)cc(O)c2)cc1 [RESVERATROL] | > 40 | > 40 | > 40 | > 40 | 
20 | COc1ccccc1/C=C/c1nccc2ccccc12 | 37.6 | 37.6 | 26.8 | 23.9 | 
